# Columns and labels:
# [1] = system: cutaneous pain induced by moderate acidification; assay: Nociceptive behaviour in rats after subcutaneous injection of moderately acidic solutions; format: in vivo, rat; conditions: FIG. 5A
# Protocol: Adult (7-8 weeks' old) male Wistar rats (Charles River, France) were placed in plastic cages with a nyctohemeral period of 12 h (with light between 8 a.m. and 8 p.m.) and with free access to food and water. The rats were left to acclimatize for at least one week before the experiments. For the behavioural experiments, the rats were placed in a transparent observation chamber where they were acclimatized for 20-30 minutes. They were subsequently immobilised while 20 μl of saline solution (0.9% or 2% of NaCl+20 mM of HEPES, […] or 60 nM of PcTx1 toxin), was administered subcutaneously to the dorsal side of the right hind paw using a 30G needle connected to a 100 μl Hamilton syringe. The nociceptive behaviour (i.e. the number of hind leg quiverings) was recorded over a 5-minute period, starting immediately after the injection ([ref. 59]).
# [2] = biological target: T1, heteromer ASIC1a+3 (Rattus norvegicus, UniProt O35240+P55926); conditions: relative to ASIC3 / ASIC2b+3; cited from earlier work
# T1 sequence (P55926 1-526): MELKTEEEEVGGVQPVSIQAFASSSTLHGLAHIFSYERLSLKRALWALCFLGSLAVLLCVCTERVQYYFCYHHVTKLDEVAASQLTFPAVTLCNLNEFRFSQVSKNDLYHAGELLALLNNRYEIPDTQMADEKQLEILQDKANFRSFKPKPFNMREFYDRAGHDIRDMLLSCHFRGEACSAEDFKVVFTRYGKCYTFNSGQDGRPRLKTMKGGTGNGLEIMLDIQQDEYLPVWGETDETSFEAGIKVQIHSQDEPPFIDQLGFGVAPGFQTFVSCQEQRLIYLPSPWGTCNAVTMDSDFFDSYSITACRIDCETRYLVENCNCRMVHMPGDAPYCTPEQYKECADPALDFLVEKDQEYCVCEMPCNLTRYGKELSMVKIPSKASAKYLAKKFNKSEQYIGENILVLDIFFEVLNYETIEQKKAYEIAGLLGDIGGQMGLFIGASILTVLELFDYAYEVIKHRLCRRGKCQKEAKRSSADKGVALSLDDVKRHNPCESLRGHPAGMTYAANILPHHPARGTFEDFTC
# T1 sequence (O35240 1-533): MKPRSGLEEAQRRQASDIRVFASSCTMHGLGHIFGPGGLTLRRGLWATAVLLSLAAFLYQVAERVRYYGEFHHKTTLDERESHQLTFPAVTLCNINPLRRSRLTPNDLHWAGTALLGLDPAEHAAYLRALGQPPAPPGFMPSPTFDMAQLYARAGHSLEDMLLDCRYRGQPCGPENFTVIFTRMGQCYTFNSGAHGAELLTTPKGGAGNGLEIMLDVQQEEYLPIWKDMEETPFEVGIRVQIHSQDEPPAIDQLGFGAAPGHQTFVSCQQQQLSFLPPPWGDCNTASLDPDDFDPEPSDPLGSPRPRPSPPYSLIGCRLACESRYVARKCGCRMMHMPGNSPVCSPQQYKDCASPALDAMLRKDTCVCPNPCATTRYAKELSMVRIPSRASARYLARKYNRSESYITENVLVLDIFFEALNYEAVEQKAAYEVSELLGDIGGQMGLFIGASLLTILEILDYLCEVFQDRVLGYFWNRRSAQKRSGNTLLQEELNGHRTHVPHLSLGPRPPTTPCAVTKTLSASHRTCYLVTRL
# [3] = biological target: T2, heteromer ASIC2a+3 (Rattus norvegicus, UniProt O35240+Q62962); conditions: cited from earlier work
# T2 sequence (Q62962 1-512): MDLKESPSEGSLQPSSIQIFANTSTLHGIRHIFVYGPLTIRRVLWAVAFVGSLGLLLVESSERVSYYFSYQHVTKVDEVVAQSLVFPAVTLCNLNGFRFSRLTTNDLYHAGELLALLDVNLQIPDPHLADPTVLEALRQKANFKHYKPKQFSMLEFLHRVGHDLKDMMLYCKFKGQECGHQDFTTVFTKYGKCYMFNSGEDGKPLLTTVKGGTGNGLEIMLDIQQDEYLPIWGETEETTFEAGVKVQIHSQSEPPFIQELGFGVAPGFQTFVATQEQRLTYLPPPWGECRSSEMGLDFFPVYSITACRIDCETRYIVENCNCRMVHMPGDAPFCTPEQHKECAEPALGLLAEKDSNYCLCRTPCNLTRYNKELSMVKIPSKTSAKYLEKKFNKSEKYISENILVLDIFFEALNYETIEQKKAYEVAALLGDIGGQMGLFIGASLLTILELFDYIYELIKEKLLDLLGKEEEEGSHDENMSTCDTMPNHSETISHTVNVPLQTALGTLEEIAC
# T2 sequence (O35240 1-533): T1 sequence (O35240 1-533)
# [4] = biological target: T3, ASIC1b (Rattus norvegicus, UniProt P55926); conditions: cited from earlier work
# T3 sequence (P55926 1-559 isoform P55926-3): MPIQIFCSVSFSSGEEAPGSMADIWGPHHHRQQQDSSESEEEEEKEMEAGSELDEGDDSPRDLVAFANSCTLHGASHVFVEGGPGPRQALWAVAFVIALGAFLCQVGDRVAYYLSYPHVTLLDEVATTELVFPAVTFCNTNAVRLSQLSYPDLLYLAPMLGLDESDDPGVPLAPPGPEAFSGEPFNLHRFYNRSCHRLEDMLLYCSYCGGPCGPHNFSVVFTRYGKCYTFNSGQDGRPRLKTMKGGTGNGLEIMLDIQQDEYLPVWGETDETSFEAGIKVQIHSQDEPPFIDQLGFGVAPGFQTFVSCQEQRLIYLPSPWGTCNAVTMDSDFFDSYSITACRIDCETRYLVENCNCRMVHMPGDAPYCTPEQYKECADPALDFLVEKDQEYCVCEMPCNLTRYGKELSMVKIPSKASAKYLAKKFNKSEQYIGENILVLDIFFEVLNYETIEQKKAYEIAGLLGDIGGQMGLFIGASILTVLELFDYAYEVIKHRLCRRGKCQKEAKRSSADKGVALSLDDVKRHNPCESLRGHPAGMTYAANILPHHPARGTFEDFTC
# [5] = biological target: T4, heteromer ASIC1b+3 (Rattus norvegicus, UniProt O35240+P55926); conditions: relative to ASIC3 / ASIC2b+3; cited from earlier work
# T4 sequence (P55926 1-559 isoform P55926-3): T3 sequence (P55926 1-559 isoform P55926-3)
# T4 sequence (O35240 1-533): T1 sequence (O35240 1-533)
substance,measurement,setting,value
"peptide of 42 amino acids (SEQ ID NO: 3), three disulphide bonds, from sea anemone Anthopleura elegantissima; blocks ASIC3 [APETx2]",behaviour in response to acid pain with inflammatory signals,"[1]; pH 6.9 + 2% NaCl + AA, 10 μM APETx2 or 60 nM PcTx1 in injected solution",markedly reduced
same,pain behaviour after subcutaneous injection of acidic solution,"[1]; pH 6.9, 10 μM APETx2 in injected solution",suppressed
same,affinity for the heteromer ASIC1a+3,[2],less affinity
same,effect on the heteromer ASIC2a+3,[3],does not have any effect
same,effect on ASIC1b isoform,[4],does not have any effect
same,affinity for the heteromer ASIC1b+3,[5],less affinity

# Source: patent US8357659B2, “Method of treating pain or itching with APETx2 peptide toxin” (priority 2008, dated 2013)
